# According to patent publication US20040142979A1, “Heteroarylsulfonylmethyl hydroxamic acids and amides and their use as protease inhibitors” (priority 2002, published 2004):
# Assays:
# Format in all cases: biochemical
# Human recombinant MMP-14 = target: T1, Human recombinant MMP-14 (Homo sapiens, UniProt P50281); assay: In vitro MMP inhibition analysis (fluorogenic peptide substrate), MMP-14; conditions: human recombinant catalytic domain; 4 μM substrate (A); apparent Ki without substrate correction
# T1 construct: The catalytic domain enzyme was expressed in E. Coli inclusion bodies; made in house
# Experimental: (§1) Several compounds and salts were analyzed in an in vitro assay to determine their ability to inhibit the MMP cleavage of peptide substrates. Inhibition constant (Ki) were calculated from the assayed compound-MMP interactions.
# (§2) Human recombinant MMP-1, MMP-2, MMP-9, MMP-13, and MMP-14 were used in this assay. All enzymes were prepared in Assignee's laboratories following usual laboratory procedures. Protocols for the preparation and use of these enzymes are available in the scientific literature. See, e.g., Enzyme Nomenclature (Academic Press, San Diego, Calif., 1992) (and the citations therein). See also, Freije et al., J. Biol. Chem., 269(24), 16766-16773 (1994).
# The MMP-14 full length cDNA was provided by Dr. Gregory Goldberg of Washington University (St. Louis, Mo.). The catalytic domain enzyme was expressed in E. Coli inclusion bodies, solubilized in urea, purified on a preparative […] reverse phase HPLC column, and then refolded in the presence of zinc acetate and purified for use.
# (§3) All MMPs were activated using 4-aminophenylmercuric acetate (“APMA”, Sigma Chemical, St. Louis, Mo.) or trypsin. MMP-9 also was activated using human recombinant MMP-3 (purified in Assignee's laboratory following standard cloning and purification techniques).
# (§4) The following fluorogenic, methoxycoumarin-containing polypeptide substrate (A) was used in the MMP inhibition assays:
# (§5) MCA-ArgProLeuGlyLeuDpaAlaArgGluArgNH2 (A)
# (§6) “MCA” is 7-methoxycoumarin-4-yl acetyl. Substrate (A) was prepared Assignee's laboratory. In the absence of MMP inhibitory activity, the substrate is cleaved at the Gly-Leu peptide bond. This cleavage separates the highly fluorogenic peptide from the 2,4-dinitrophenyl quencher, thus resulting in increase of fluorescent intensity.
# (§7) The stock solutions of the assayed compounds and salts were prepared in 1% dimethyl sulfoxide (DMSO). These stock solutions were diluted in Buffer A (100 mM Tris-HCl, 100 mM NaCl, 10 mM CaCl2, 0.05% polyoxyethylene 23 lauryl ether, pH 7.5) to obtain solutions with different compound concentrations, i.e., assay solutions with different concentrations of the assayed MMP inhibitory compound. The experiment controls contained the same amount of Buffer A/DMSO as the assayed sample, but contained none of the tested compound or salt.
# (§8) The assays from which the Ki determinations were made were performed as follows. The assayed compound samples were incubated in separate wells of untreated white polystyrene plates (Nunc Nalgene International, Rochester, N.Y.), and analyzed on a Tecan SpectraFlour Plus plate reader. The excitation wavelength was 330 nm, and the emission wavelength -420 nm. All samples (assayed compounds and controls) were incubated in separate plate wells at room temperature for 1 hr in the presence of 4 μM of MMP substrate (A). In the absence of MMP inhibitory activity, substrate (A) was cleaved at the Gly-Leu bond resulting in an increase of relative fluorescence. Inhibition was observed as a reduced rate of this increase in relative fluorescence. […] This protocol is a modification of method by Knight et al., FEBS Lett., 296(3), 263-266 (1992). Apparent inhibitory constants were determined by non-linear regression of reaction velocity as a function of inhibitor and enzyme concentration using Morrison's equation, as described by Kuzmic, P., et al., Anal. Biochem., 286(1):45-50 (2000). Modifications were made in the non-linear regression method to allow a common control reaction rate and effective enzyme concentration to be shared between all dose-response relationships on a given assay plate. Since the substrate concentration was chosen to be at or below the Km, the apparent Ki's from this analysis were reported as Ki's without correction for the influence of substrate.
# (§9) The above protocols were used to determine MMP inhibition Ki constants for the compounds in Examples 1, 2, and 4-42 above. All Ki values in Table 3 are given in nM units.
# Human recombinant MMP-9 = target: T2, Human recombinant MMP-9 (Homo sapiens, UniProt P14780); assay: In vitro MMP inhibition analysis (fluorogenic peptide substrate), MMP-9; conditions: human recombinant enzyme; 4 μM substrate (A); apparent Ki without substrate correction
# T2 construct: made in house; host or cells: MMP-9-transfected HT1080 cells (spent media)
# Experimental: as §1, §2
# The MMP-9 proenzyme was purified by gelatin Sepharose chromatography from spent media of MMP-9-transfected HT1080 cells provided by Dr. Howard Welgus of Washington University (St. Louis, Mo.).
# as §3, §4, §5, §6, §7, §8, §9
# Human recombinant MMP-2 = target: T3, Human recombinant MMP-2 (Homo sapiens, UniProt P08253); assay: In vitro MMP inhibition analysis (fluorogenic peptide substrate), MMP-2; conditions: human recombinant enzyme; 4 μM substrate (A); apparent Ki without substrate correction
# T3 construct: made in house; host or cells: MMP-2-transfected p2AHT2 cells
# T3 sequence (P08253 110-660): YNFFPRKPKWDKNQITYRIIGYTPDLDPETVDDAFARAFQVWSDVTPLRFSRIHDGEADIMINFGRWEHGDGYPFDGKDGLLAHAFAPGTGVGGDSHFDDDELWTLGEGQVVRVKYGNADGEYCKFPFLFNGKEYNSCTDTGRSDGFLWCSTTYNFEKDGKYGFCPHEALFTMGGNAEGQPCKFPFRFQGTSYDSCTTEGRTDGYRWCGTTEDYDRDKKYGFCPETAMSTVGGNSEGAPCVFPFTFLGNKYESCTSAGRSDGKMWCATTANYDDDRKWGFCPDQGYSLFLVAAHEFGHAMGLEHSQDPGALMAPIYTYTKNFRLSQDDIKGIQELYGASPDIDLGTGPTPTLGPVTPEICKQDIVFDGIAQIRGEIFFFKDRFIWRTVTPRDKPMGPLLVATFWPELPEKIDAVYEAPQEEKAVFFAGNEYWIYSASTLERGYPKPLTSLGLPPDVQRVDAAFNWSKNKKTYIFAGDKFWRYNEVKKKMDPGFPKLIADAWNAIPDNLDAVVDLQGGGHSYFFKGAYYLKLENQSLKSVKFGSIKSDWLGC
# Experimental: as §1, §2
# The MMP-2 proenzyme was purified by gelatin Sepharose chromatography from MMP-2- transfected p2AHT2 cells provided by Dr. Gregory Goldberg of Washington University (St. Louis, Mo.).
# as §3, §4, §5, §6, §7, §8, §9
# T2 sequence (P14780 107-707 limits assumed): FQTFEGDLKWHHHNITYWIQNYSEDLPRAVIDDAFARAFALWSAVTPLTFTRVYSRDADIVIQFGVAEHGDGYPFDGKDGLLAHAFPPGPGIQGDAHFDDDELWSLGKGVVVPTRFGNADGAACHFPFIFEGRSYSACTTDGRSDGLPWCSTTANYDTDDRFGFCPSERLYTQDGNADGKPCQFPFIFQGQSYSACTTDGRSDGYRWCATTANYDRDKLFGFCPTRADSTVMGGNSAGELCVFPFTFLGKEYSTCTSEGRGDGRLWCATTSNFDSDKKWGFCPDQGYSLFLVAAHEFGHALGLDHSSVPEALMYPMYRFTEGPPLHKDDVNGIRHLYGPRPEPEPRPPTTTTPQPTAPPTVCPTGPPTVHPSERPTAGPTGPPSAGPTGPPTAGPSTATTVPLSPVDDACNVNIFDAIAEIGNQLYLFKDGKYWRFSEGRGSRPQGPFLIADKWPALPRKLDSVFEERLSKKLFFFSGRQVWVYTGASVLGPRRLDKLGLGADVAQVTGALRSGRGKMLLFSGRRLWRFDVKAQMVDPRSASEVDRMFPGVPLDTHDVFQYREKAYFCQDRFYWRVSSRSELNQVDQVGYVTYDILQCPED
SMILES,Ki (Human recombinant MMP-14),Ki (Human recombinant MMP-9),Ki (Human recombinant MMP-2)
O=C(NO)C1(S(=O)(=O)c2ccc(-c3ccc(CCC(F)(F)F)cc3)nc2)CCOCC1 [Example 68],2450 nM,2.82 nM,0.665 nM
CCN(CC)C(=O)c1ccc(-c2ccc(S(=O)(=O)C3(C(=O)NO)CCOCC3)cn2)cc1 [Example 79],> 10000 nM,> 10000 nM,8200 nM
O=C(NO)C1(S(=O)(=O)c2ccc3nc(-c4ccsc4)sc3c2)CCOCC1 [Example 62],355 nM,40.5 nM,4.83 nM
CC(C)Cc1ncc(-c2nc3ccc(S(=O)(=O)C4(C(=O)NO)CCOCC4)cc3s2)s1 [Example 54],> 10000 nM,99 nM,35.4 nM
O=C(NO)C1(S(=O)(=O)c2ccc3nc(-c4ccc(SC(F)(F)F)cc4)sc3c2)CCOCC1 [Example 67],3600 nM,0.471 nM,2.76 nM
CCCCc1ccc(C(=O)C2CCN(c3nc4ccc(S(=O)(=O)C5(C(=O)NO)CCOCC5)cc4s3)CC2)s1 [Example 52],> 10000 nM,837 nM,76.3 nM
O=C(NO)C1(S(=O)(=O)c2ccc(-c3ccc(CCC(F)(F)C(F)(F)F)cc3)nc2)CCOCC1 [Example 69],5070 nM,8.93 nM,0.766 nM
O=C(NO)C1(S(=O)(=O)c2ccc(-c3ccc(OC(F)(F)C(F)F)cc3)nc2)CCOCC1 [Example 48],1850 nM,1.06 nM,0.222 nM
CCCCOc1ccc(-c2ccc(S(=O)(=O)C3(C(=O)NO)CCOCC3)s2)cc1 [Example 43],466 nM,0.806 nM,0.483 nM
O=C(NO)C1(S(=O)(=O)c2ccc(-c3ccc(C(F)(F)F)cn3)s2)CCOCC1 [Example 50],2820 nM,133 nM,29.4 nM
CCCCCc1ccc(-c2ccc(S(=O)(=O)C3(C(=O)NO)CCOCC3)cn2)cc1 [Example 45],3490 nM,8.96 nM,2.08 nM
O=C(NO)C1(S(=O)(=O)c2ccc(-c3ccc(OC(F)(F)C(F)F)cc3)s2)CCOCC1 [Example 44],429 nM,0.354 nM,0.173 nM
O=C(NO)C1(S(=O)(=O)c2ccc3nc(-c4ccc5c(c4)OCO5)sc3c2)CCOCC1 [Example 65],686 nM,7.2 nM,4.43 nM
O=C(NO)C1(S(=O)(=O)c2ccc3nc(-c4ccc(F)c(F)c4)sc3c2)CCOCC1 [Example 60],707 nM,14.1 nM,10.3 nM
CCCCc1ccc(C(=O)C2CCN(c3ccc(S(=O)(=O)C4(C(=O)NO)CCOCC4)cn3)CC2)s1 [Example 70],> 10000 nM,> 10000 nM,1840 nM
O=C(NO)C1(S(=O)(=O)c2ccc(-c3ccc(OC(F)(F)F)cc3)nc2)CCOCC1 [Example 84],671 nM,4.26 nM,0.819 nM
O=C(NO)C1(S(=O)(=O)c2ccc3nc(-c4cccc(C(F)(F)F)c4)sc3c2)CCOCC1 [Example 55],> 10000 nM,3310 nM,621 nM
O=C(NO)C1(S(=O)(=O)c2ccc(-c3ccc(OCC(F)(F)F)cc3)nc2)CCOCC1 [Example 46],852 nM,0.988 nM,0.367 nM
O=C(NO)C1(S(=O)(=O)c2ccc3nc(-c4ccc(Cl)s4)sc3c2)CCOCC1 [Example 59],927 nM,5.09 nM,2.01 nM
O=C(Cc1ccc(-c2ccc(S(=O)(=O)C3(C(=O)NO)CCOCC3)cn2)cc1)N1CCCCC1 [Example 72],> 10000 nM,7770 nM,305 nM
O=C(NO)C1(S(=O)(=O)c2ccc3nc(-n4cnc(-c5ccccc5)c4)sc3c2)CCOCC1 [Example 64],3830 nM,799 nM,151 nM
CCCCN(C)C(=O)Cc1ccc(-c2ccc(S(=O)(=O)C3(C(=O)NO)CCOCC3)cn2)cc1 [Example 74],> 10000 nM,4930 nM,387 nM

# Further lines, results first:
Ki (Human recombinant MMP-14),Ki (Human recombinant MMP-9),Ki (Human recombinant MMP-2),SMILES
> 10000 nM,3400 nM,2060 nM,CN(C(=O)c1ccc(-c2ccc(S(=O)(=O)C3(C(=O)NO)CCOCC3)cn2)cc1)c1ccc(OC(F)(F)F)cc1 [Example 81]
2130 nM,1.53 nM,0.274 nM,O=C(NO)C1(S(=O)(=O)c2ccc(-c3ccc(OC(F)(F)C(F)F)cc3)nc2)CCOCC1 [Example 47]
4230 nM,0.624 nM,2.25 nM,COCCN1CCC(C(=O)NO)(S(=O)(=O)c2ccc3nc(-c4ccc(OC(F)(F)F)cc4)sc3c2)CC1 [Example 63]
> 10000 nM,21.5 nM,14.8 nM,O=C(NO)C1(S(=O)(=O)c2ccc3nc(-c4ccc(F)cc4F)sc3c2)CCOCC1 [Example 61]
2500 nM,1.06 nM,1.51 nM,CCc1ccc(-c2nc3ccc(S(=O)(=O)C4(C(=O)NO)CCOCC4)cc3s2)cc1 [Example 58]
> 10000 nM,12.8 nM,3.52 nM,CCCc1ccc(-c2nc3ccc(S(=O)(=O)C4(C(=O)NO)CCOCC4)cc3s2)cc1 [Example 53]
9250 nM,10.2 nM,3.14 nM,O=C(NO)C1(S(=O)(=O)c2ccc(-c3ccc(CCC(F)(F)C(F)(F)F)cn3)s2)CCOCC1 [Example 49]
> 10000 nM,1290 nM,895 nM,CN(C(=O)c1ccc(-c2ccc(S(=O)(=O)C3(C(=O)NO)CCOCC3)cn2)cc1)c1ccccc1 [Example 78]
> 10000 nM,> 10000 nM,553 nM,CC(C)CN(C)C(=O)Cc1ccc(-c2ccc(S(=O)(=O)C3(C(=O)NO)CCOCC3)cn2)cc1 [Example 71]
> 312 nM,3.37 nM,2.21 nM,CCOc1ccc(-c2nc3ccc(S(=O)(=O)C4(C(=O)NO)CCOCC4)cc3s2)cc1 [Example 66]
> 10000 nM,0.159 nM,0.218 nM,CN(C(=O)Cc1ccc(-c2ccc(S(=O)(=O)C3(C(=O)NO)CCOCC3)cn2)cc1)c1ccc(OC(F)(F)F)cc1 [Example 75]
2160 nM,0.964 nM,1.86 nM,O=C(NO)C1(S(=O)(=O)c2ccc3nc(-c4ccc(C(F)(F)F)cc4)sc3c2)CCOCC1 [Example 57]
